Data reported in US10695427B2, “Shape memory particles for biomedical uses” (The Johns Hopkins University, priority 2015, dated 2020).

Tests used:
[1] = test system: MDA-MB-231 cells; assay: Paclitaxel/digoxin treatment of TNBC orthografts (tumor volume, Aldefluor assay, RT-qPCR); type: in vivo, mice; details: tumors harvested on day 12; for percentage of ALDH+ cells (Aldefluor assay): compared with saline treatment
Method: MDA-MB-231 cells were implanted into the mammary fat pad of female severe combined immunodeficiency (Scid) mice. Mice were randomized to four groups, which were treated with: saline (control, C); digoxin (D); paclitaxel (P); or paclitaxel and digoxin (P/D). […] Tumors were harvested on day 12 for Aldefluor assay to determine the percentage of aldehyde dehydrogenase-expressing (ALDH^+) BCSCs (FIG. 17B) and RT-qPCR assays to quantify the expression of mRNAs encoding interleukin (IL) 8, IL-6, and the multidrug drug resistance protein MDR1 (FIG. 17C).

[2] = test system: MDA-MB-231 cells; assay: Gemcitabine/digoxin combination therapy, tumor relapse; type: in vivo, mice
Method: MDA-MB-231 cells were implanted into the mammary fat pad of female Scid mice. When a tumor was palpable (day 1), the mice were randomized to three groups, which were treated with intraperitoneal injections of: saline, gemcitabine [20 mg/kg on days 5, 10, 15, 20, and 25 (arrows)], or gemcitabine and digoxin (2 mg/kg on days 1-25). Tumor volumes were determined every 2-3 d and mean±SEM (n=3) are shown.
To examine the effect of HIF inhibition on tumor relapse, MDA-MB-231 cells were implanted into the mammary fat pad of Scid mice. When the tumor became palpable, the mice were randomized to receive intraperitoneal injections of saline, gemcitabine (20 mg/kg on days 5, 10, 15, 20, and 25), or the combination of digoxin (2 mg/kg on days 1-25) and gemcitabine.

Structure (SMILES)	expression of IL-6, IL-8, and MDR1 mRNA ([1]; RT-qPCR)	percentage of ALDH+ cells (Aldefluor assay) [1]	tumor growth during treatment ([2]; intraperitoneal, gemcitabine 20 mg/kg days 5, 10, 15, 20, 25, digoxin 2 mg/kg days 1-25, Scid mice)	tumor growth after treatment was discontinued (relapse) ([2]; up to day 32, 7 days after treatment was discontinued)
CC(=O)O[C@H]1C(=O)[C@@]2(C)[C@H]([C@H](OC(=O)c3ccccc3)[C@]3(O)C[C@H](OC(=O)[C@H](O)[C@@H](NC(=O)c4ccccc4)c4ccccc4)C(C)=C1C3(C)C)[C@]1(OC(C)=O)CO[C@@H]1C[C@@H]2O [paclitaxel]	increased	significantly increased		
Nc1ccn([C@@H]2O[C@H](CO)[C@@H](O)C2(F)F)c(=O)n1 [gemcitabine]			markedly reduced tumor growth	rapid tumor growth resumed
C[C@H]1O[C@@H](O[C@H]2[C@@H](O)C[C@H](O[C@H]3[C@@H](O)C[C@H](O[C@H]4CC[C@@]5(C)[C@H](CC[C@@H]6[C@@H]5C[C@@H](O)[C@]5(C)[C@@H](C7=CC(=O)OC7)CC[C@]65O)C4)O[C@@H]3C)O[C@@H]2C)C[C@H](O)[C@@H]1O [digoxin]		significantly decreased		
